# Laboratory results: patent US6043258A (Eli Lilly and Company, priority 1998, dated 2000)
# Columns and labels:
# [1] = biological target: muscarinic receptors (^3 H-oxotremorine-M binding); assay: ^3 H-oxotremorine-M binding inhibition; settings: radioligand ^3 H-oxotremorine-M; read-out: inhibition constant (Ki), binding of ^3 H-oxotremorine-M
# [2] = tested on: m4 receptors (CHO m4 cells); assay: cAMP formation in CHO m4 cells treated with pertussis toxin; format: cell-based
# Source text: Muscarinic agonists stimulate the formation of cAMP up to 10 fold in CHO m4 cells treated with pertussisi toxin and the pharmacology is consistent with the mediation by m4 receptors. Eckols K. Soc. Neurosci Abstr., 21:2040 (1995).
# [3] = biological target: 5HT1D receptor subtype; assay: 5HT1D receptor affinity; format: binding
# [4] = tested on: D2 receptor subtype; assay: pharmacological studies at D2 receptor subtype
smiles,measurement,setting,value
"CCCCCCOc1nsnc1C1=CCCN(C)C1 [xanomeline, 3-(4-hexyloxy-1,2,5-thiadiazol-3-yl)-1,2,5,6-tetrahydro-1-methylpyridine]",Ki,[1],2 nM
same,stimulation of the formation of cAMP,[2],efficaciously and potently stimulated the formation of CAMP
same,Ki,[3],180 nM
same,activity at the D2 receptor subtype,[4],active at the D2 receptor subtype
